Measurements: patent US9796720B2, “Imidazole-derived modulators of the glucocorticoid receptor” (BRISTOL-MYERS SQUIBB COMPANY, priority 2013, dated 2017)
Like-named read-outs stand apart in the source and are kept apart here.

Experiments:
[1] = target: human full-length glucocorticoid receptor (Homo sapiens (Human), UniProt P04150); test: Glucocorticoid Receptor Binding Assay (II), fluorescence polarization competitor assay; conditions: recombinant human full-length GR cell lysate, Fluormone GS1; read-out: GR (Ki, nM) (measured in GR binding Assay II)
human full-length glucocorticoid receptor, sequence (P04150 whole entry): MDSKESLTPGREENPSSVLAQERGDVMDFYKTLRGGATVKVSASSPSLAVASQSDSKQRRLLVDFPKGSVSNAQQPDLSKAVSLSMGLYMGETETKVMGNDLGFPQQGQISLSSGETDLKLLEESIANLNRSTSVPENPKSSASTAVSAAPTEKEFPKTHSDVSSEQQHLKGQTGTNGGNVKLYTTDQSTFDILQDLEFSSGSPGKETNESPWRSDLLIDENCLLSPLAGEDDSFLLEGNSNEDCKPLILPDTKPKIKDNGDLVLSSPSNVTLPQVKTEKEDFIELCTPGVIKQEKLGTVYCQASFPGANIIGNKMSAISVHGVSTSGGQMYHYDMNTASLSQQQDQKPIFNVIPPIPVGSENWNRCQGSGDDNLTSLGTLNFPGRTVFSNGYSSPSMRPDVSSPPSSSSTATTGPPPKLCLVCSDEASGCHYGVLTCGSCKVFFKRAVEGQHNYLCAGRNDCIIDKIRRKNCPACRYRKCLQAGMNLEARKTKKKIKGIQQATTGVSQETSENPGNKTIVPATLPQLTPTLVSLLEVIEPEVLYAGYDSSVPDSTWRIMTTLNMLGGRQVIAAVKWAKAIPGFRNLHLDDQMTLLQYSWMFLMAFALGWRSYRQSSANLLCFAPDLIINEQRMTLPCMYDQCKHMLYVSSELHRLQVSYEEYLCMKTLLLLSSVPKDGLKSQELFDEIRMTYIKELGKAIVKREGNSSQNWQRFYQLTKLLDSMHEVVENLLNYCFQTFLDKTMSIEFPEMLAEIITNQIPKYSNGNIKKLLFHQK
Procedure: Glucocorticoid Receptor Binding Assay (II)
In order to measure the binding of compounds on the glucocorticoid receptor a commercially available kit was used (Glucocorticoid receptor competitor assay kit, PanVera Co., Madison, Wis., P2816). Briefly, a cell lysate containing recombinantly expressed human full-length glucocorticoid receptor was mixed with a fluorescently labeled glucocorticoid (1 nM Fluormone GS1) in the presence or absence of test compound. After one hour at room temperature, the fluorescence polarization (FP) of the samples were measured.

AP-1 = test: Cellular transrepressional assay (AP-1 luciferase reporter in A549 cells, PMA-activated); type: cell-based; conditions: for EC50: read-out: AP-1 (EC50, nM) (measured in cellular transrepression assay); for Emax: read-out: AP-1 Max % inhibition (measured in cellular transrepression assay)
Procedure: Cellular Transrepressional Assay
To measure the ability of test molecules to inhibit AP-1 induced transcriptional activity we utilized an A549 cell which was stably transfected with a plasmid containing 7×AP-1 DNA binding sites (pAP-1-Luc plasmid, Stratagene Co. La Jolla, Calif.) followed by the gene for luciferase. Cells were activated with 10 ng/ml of phorbol myristic acid (PMA) plus or minus test molecules for 7 hours. After 7 hours a luciferase reagent was added to measure luciferase enzymatic activity in the cell. After a 10 minute incubation of luciferase reagent with cells, luminescence was measured in a TOPCOUNT® luminescence counter. Repression of AP-1 activity was calculated as the percentage decrease in the signal induced by PMA alone. Test molecules were analyzed in the concentration range from 0.1 nM to 40 μM. EC50s were determined by using standard curve fitting methods such as Excel fit (Microsoft Co.). An EC50 is the test molecule concentration at which there is a 50% repression of the maximal inhibition of transcription, i.e., a 50% reduction of AP-1 activity.

[2] = A549 cells, 7xAP-1 luciferase, PMA 10 ng/ml, 7 hours

SMILES | Ki [1] [nM] | EC50 (AP-1; [2]) [nM] | Emax (AP-1; [2]) [%] | EC50 (AP-1; 7 h) [nM] | Emax (AP-1; 7 h) [%]
CC(C)(c1nc2nccnc2[nH]1)[C@@H]1c2ccc(-c3ccc(F)nc3)nc2Oc2c(F)cccc21 [Example 28, (S)-5-(2-(1H-Imidazo[4,5-b]pyrazin-2-yl)propan-2-yl)-9-fluoro-2-(6-fluoropyridin-3-yl)-5H-chromeno[2,3-b]pyridine] | 28.6 | 5000 | 16.4 | – | –
CC(C)(c1nc2cncnc2[nH]1)[C@@H]1c2ccc(-c3ccc(S(C)(=O)=O)cc3)nc2Oc2c(F)cccc21 [Example 17, (S)-5-(2-(9H-Purin-8-yl)propan-2-yl)-9-fluoro-2-(4-(methylsulfonyl)phenyl)-5H-chromeno[2,3-b]pyridine] | 65.8 | 2500 | 27.3 | – | –
CCS(=O)(=O)c1ccc(-c2ccc3c(n2)Oc2c(F)cccc2[C@@H]3C(C)(C)c2nc3nccnc3[nH]2)cc1 [Example 6, (S)-5-(2-(1H-Imidazo[4,5-b]pyrazin-2-yl)propan-2-yl)-2-(4-(ethylsulfonyl)phenyl)-9-fluoro-5H-chromeno[2,3-b]pyridine] | 2.34 | 15.5 | 58.2 | – | –
CC(C)(c1nc2cccnc2[nH]1)[C@@H]1c2ccc(-c3ccc(C(=O)N4CCOCC4)cc3)nc2Oc2c(F)cccc21 [Example 15, (S)-(4-(5-(2-(3H-Imidazo[4,5-b]pyridin-2-yl)propan-2-yl)-9-fluoro-5H-chromeno[2,3-b]pyridin-2-yl)phenyl)(morpholino)methanone] | 121 | 864 | 29.3 | – | –
CC(C)(c1nc2cncnc2[nH]1)[C@@H]1c2ccc(-c3ccc(C(=O)N4CCOCC4)cc3)nc2Oc2c(F)cccc21 [Example 16, (S)-(4-(5-(2-(9H-Purin-8-yl)propan-2-yl)-9-fluoro-5H-chromeno[2,3-b]pyridin-2-yl)phenyl)(morpholino)methanone] | 12.4 | 169 | 52.2 | – | –
CC(C)(c1nc2nccnc2[nH]1)[C@@H]1c2ccc(-c3ccc(NS(C)(=O)=O)cc3)nc2Oc2c(F)cccc21 [Example 23, (S)-N-(4-(5-(2-(1H-Imidazo[4,5-b]pyrazin-2-yl)propan-2-yl)-9-fluoro-5H-chromeno[2,3-b]pyridin-2-yl)phenyl)methanesulfonamide] | 1.76 | – | – | 22.8 | 58.2
CC(C)Oc1ccc(-c2ccc3c(n2)Oc2c(F)cccc2[C@@H]3C(C)(C)c2nc3nccnc3[nH]2)cc1Cl [Example 9, (S)-5-(2-(1H-Imidazo[4,5-b]pyrazin-2-yl)propan-2-yl)-2-(3-chloro-4-isopropoxyphenyl)-9-fluoro-5H-chromeno[2,3-b]pyridine] | 2.1 | 291 | 43.7 | – | –
CCOc1ccc(-c2ccc3c(n2)Oc2c(F)cccc2[C@@H]3C(C)(C)c2nc3nccnc3[nH]2)cc1 [Example 12, (S)-5-(2-(1H-Imidazo[4,5-b]pyrazin-2-yl)propan-2-yl)-2-(4-ethoxyphenyl)-9-fluoro-5H-chromeno[2,3-b]pyridine] | 0.66 | 14.4 | 62.6 | – | –
CN(C)c1ccc(-c2ccc3c(n2)Oc2c(F)cccc2[C@@H]3C(C)(C)c2nc3nccnc3[nH]2)cn1 [Example 29, (S)-5-(5-(2-(1H-Imidazo[4,5-b]pyrazin-2-yl)propan-2-yl)-9-fluoro-5H-chromeno[2,3-b]pyridin-2-yl)-N,N-dimethylpyridin-2-amine] | 5.43 | 129 | 44.9 | – | –
CC(C)(c1nc2nccnc2[nH]1)[C@@H]1c2ccc(-c3ccc(N4CCOCC4)cc3)nc2Oc2c(F)cccc21 [Example 18, (S)-5-(2-(1H-Imidazo[4,5-b]pyrazin-2-yl)propan-2-yl)-9-fluoro-2-(4-morpholinophenyl)-5H-chromeno[2,3-b]pyridine] | 16 | 61.1 | 50.6 | – | –
CC(C)(O)c1ccc(-c2ccc3c(n2)Oc2c(F)cccc2[C@@H]3C(C)(C)c2nc3nccnc3[nH]2)cn1 [Example 27, (S)-2-(5-(5-(2-(1H-Imidazo[4,5-b]pyrazin-2-yl)propan-2-yl)-9-fluoro-5H-chromeno[2,3-b]pyridin-2-yl)pyridin-2-yl)propan-2-ol] | 9.3 | 28.4 | 53.6 | – | –
CC(=O)c1ccc(-c2ccc3c(n2)Oc2c(F)cccc2[C@@H]3C(C)(C)c2nc3nccnc3[nH]2)cc1 [Example 2, (S)-1-(4-(5-(2-(1H-Imidazo[4,5-b]pyrazin-2-yl)propan-2-yl)-9-fluoro-5H-chromeno[2,3-b]pyridin-2-yl)phenyl)ethanone] | 3.28 | – | – | 4.39 | 59.7
CN(C)C(=O)c1ccc(-c2ccc3c(n2)Oc2c(F)cccc2[C@@H]3C(C)(C)c2nc3nccnc3[nH]2)cc1 [Example 4, (S)-4-(5-(2-(1H-Imidazo[4,5-b]pyrazin-2-yl)propan-2-yl)-9-fluoro-5H-chromeno[2,3-b]pyridin-2-yl)-N,N-dimethylbenzamide] | 2.63 | 4.94 | 73.1 | – | –
CC(C)(c1nc2nccnc2[nH]1)[C@@H]1c2ccc(-c3ccc(N)cc3)nc2Oc2c(F)cccc21 [Example 22, (S)-4-(5-(2-(1H-Imidazo[4,5-b]pyrazin-2-yl)propan-2-yl)-9-fluoro-5H-chromeno[2,3-b]pyridin-2-yl)aniline] | 2.91 | 19.9 | 51 | – | –
CC(=O)Nc1ccc(-c2ccc3c(n2)Oc2c(F)cccc2[C@@H]3C(C)(C)c2nc3nccnc3[nH]2)cc1 [Example 19, (S)-N-(4-(5-(2-(1H-Imidazo[4,5-b]pyrazin-2-yl)propan-2-yl)-9-fluoro-5H-chromeno[2,3-b]pyridin-2-yl)phenyl)acetamide] | 70.5 | 1950 | 44.6 | – | –
CC(C)(c1nc2nccnc2[nH]1)[C@@H]1c2ccc(-c3ccc(C(=O)N4CCOCC4)nc3)nc2Oc2c(F)cccc21 [Example 30, (S)-(5-(5-(2-(1H-Imidazo[4,5-b]pyrazin-2-yl)propan-2-yl)-9-fluoro-5H-chromeno[2,3-b]pyridin-2-yl)pyridin-2-yl)(morpholino)methanone] | 30.3 | 179 | 57 | – | –
CC(C)(c1nc2nccnc2[nH]1)[C@@H]1c2ccc(-c3ccc(S(C)(=O)=O)cc3)nc2Oc2c(F)cccc21 [Example 5, (S)-5-(2-(1H-Imidazo[4,5-b]pyrazin-2-yl)propan-2-yl)-9-fluoro-2-(4-(methylsulfonyl)phenyl)-5H-chromeno[2,3-b]pyridine] | 2.89 | – | – | 29.5 | 55.8
CC(C)(C)Oc1ccc(-c2ccc3c(n2)Oc2c(F)cccc2[C@@H]3C(C)(C)c2nc3nccnc3[nH]2)cc1 [Example 11, (S)-5-(2-(1H-Imidazo[4,5-b]pyrazin-2-yl)propan-2-yl)-2-(4-tert-butoxyphenyl)-9-fluoro-5H-chromeno[2,3-b]pyridine] | 0.82 | – | – | 37.5 | 76.3
CC(C)(c1nc2nccnc2[nH]1)[C@@H]1c2ccc(-c3ccc(OC(F)(F)F)cc3)nc2Oc2c(F)cccc21 [Example 13, (S)-5-(2-(1H-Imidazo[4,5-b]pyrazin-2-yl)propan-2-yl)-9-fluoro-2-(4-(trifluoromethoxy)phenyl)-5H-chromeno[2,3-b]pyridine] | 2.36 | 55.1 | 55.5 | – | –
CC(C)Oc1ccc(-c2ccc3c(n2)Oc2c(F)cccc2[C@@H]3C(C)(C)c2nc3nccnc3[nH]2)cc1F [Example 10, (S)-5-(2-(1H-Imidazo[4,5-b]pyrazin-2-yl)propan-2-yl)-9-fluoro-2-(3-fluoro-4-isopropoxyphenyl)-5H-chromeno[2,3-b]pyridine] | 0.67 | 20.1 | 70.2 | – | –
CC(C)Oc1ccc(-c2ccc3c(n2)Oc2c(F)cccc2[C@@H]3C(C)(C)c2nc3nccnc3[nH]2)cc1 [Example 8, (S)-5-(2-(1H-Imidazo[4,5-b]pyrazin-2-yl)propan-2-yl)-9-fluoro-2-(4-isopropoxyphenyl)-5H-chromeno[2,3-b]pyridine] | 0.76 | 9.82 | 69.8 | – | –
CC(C)(c1nc2nccnc2[nH]1)[C@@H]1c2ccc(-c3ccc(N4CCCC4=O)cc3)nc2Oc2c(F)cccc21 [Example 24, (S)-1-(4-(5-(2-(1H-Imidazo[4,5-b]pyrazin-2-yl)propan-2-yl)-9-fluoro-5H-chromeno[2,3-b]pyridin-2-yl)phenyl)pyrrolidin-2-one] | 1.9 | 37.3 | 69.4 | – | –
CC(C)(O)c1ccc(-c2ccc3c(n2)Oc2c(F)cccc2[C@@H]3C(C)(C)c2nc3nccnc3[nH]2)cc1 [Example 3, (S)-2-(4-(5-(2-(1H-Imidazo[4,5-b]pyrazin-2-yl)propan-2-yl)-9-fluoro-5H-chromeno[2,3-b]pyridin-2-yl)phenyl)propan-2-ol] | 2.35 | 3.85 | 65 | – | –
